System: MV-4-11 cells
Assay: Gene expression microarray analysis (Affymetrix PrimeView) and GSEA
Format: cell-based, human
Design: RFU PODN (11730768_x_at) / Fold change /veh PODN (11730768_x_at) / RFU LINC00158 (11744669_a_at) / Fold change /veh LINC00158 (11744669_a_at) / RFU DUSP10 (11751237_a_at) / Fold change /veh DUSP10 (11751237_a_at) / RFU ID3 (11757404_x_at) / Fold change /veh ID3 (11757404_x_at) / RFU PLEKHG5 (11737974_s_at) / Fold change /veh PLEKHG5 (11737974_s_at) / RFU LRRC4B (11730491_at) / Fold change /veh LRRC4B (11730491_at) / RFU GIMAP4 (11747438_a_at) / Fold change /veh GIMAP4 (11747438_a_at) / RFU KRT8 (11758183_x_at) / Fold change /veh KRT8 (11758183_x_at) / RFU CNN1 (11734310_a_at) / Fold change /veh CNN1 (11734310_a_at) / RFU VPS37D (11726825_at) / Fold change /veh VPS37D (11726825_at) / RFU C10orf10 (11716522_x_at) / Fold change /veh C10orf10 (11716522_x_at) / RFU KIR2DL2 /// KIR2DL4 /// KIR2DL5A /// KIR2DL5B /// KIR2DS1 /// KIR2DS2 /// KIR2DS3 /// KIR2DS4 /// KIR3DL3 /// KIR3DL3 /// KIR3DS1 (11738374_at) / Fold change /veh KIR2DL2 /// KIR2DL4 /// KIR2DL5A /// KIR2DL5B /// KIR2DS1 /// KIR2DS2 /// KIR2DS3 /// KIR2DS4 /// KIR3DL3 /// KIR3DL3 /// KIR3DS1 (11738374_at) / RFU C1QL1 (11718748_at) / Fold change /veh C1QL1 (11718748_at) / RFU TMPRSS4 (11747572_a_at) / Fold change /veh TMPRSS4 (11747572_a_at) / RFU HAMP (11756126_x_at) / Fold change /veh HAMP (11756126_x_at) / RFU RNFT2 (11725882_a_at) / Fold change /veh RNFT2 (11725882_a_at) / RFU NR4A2 (11747474_a_at) / Fold change /veh NR4A2 (11747474_a_at) / RFU ABCC12 (11746883_a_at) / Fold change /veh ABCC12 (11746883_a_at) / RFU TMEM136 (11760407_x_at) / Fold change /veh TMEM136 (11760407_x_at) / RFU CLDN22 /// WWC2 (11732394_at) / Fold change /veh CLDN22 /// WWC2 (11732394_at) / RFU HLA-DPB1 (11760878_x_at) / Fold change /veh HLA-DPB1 (11760878_x_at) / RFU SPINT1 (11716480_a_at) / Fold change /veh SPINT1 (11716480_a_at) / RFU GAP43 (11754022_s_at) / Fold change /veh GAP43 (11754022_s_at) / RFU A4GNT (11735810_at) / Fold change /veh A4GNT (11735810_at) / RFU PRB3 (11715151_x_at) / Fold change /veh PRB3 (11715151_x_at) / RFU TUBB4B (11761932_at) / Fold change /veh TUBB4B (11761932_at) / RFU CAPN14 (11732068_a_at) / Fold change /veh CAPN14 (11732068_a_at) / RFU TMCC2 (11721928_a_at) / Fold change /veh TMCC2 (11721928_a_at) / RFU IRGQ (11745062_a_at) / Fold change /veh IRGQ (11745062_a_at) / RFU FAM174B (11720279_a_at) / Fold change /veh FAM174B (11720279_a_at) / RFU TMPRSS4 (11748680_a_at) / Fold change /veh TMPRSS4 (11748680_a_at) / RFU FAM212B (11763350_a_at) / Fold change /veh FAM212B (11763350_a_at) / RFU PLEKHG5 (11743358_a_at) / Fold change /veh PLEKHG5 (11743358_a_at) / RFU ZSCAN30 (11745921_a_at) / Fold change /veh ZSCAN30 (11745921_a_at) / RFU CMKLR1 (11741424_a_at) / Fold change /veh CMKLR1 (11741424_a_at) / RFU LOC101060620 /// MAPK8IP1 (11723275_at) / Fold change /veh LOC101060620 /// MAPK8IP1 (11723275_at) / RFU SPTSSB (11747773_x_at) / Fold change /veh SPTSSB (11747773_x_at) / RFU PRSS12 (11739890_at) / Fold change /veh PRSS12 (11739890_at) / RFU BIN1 (11741810_x_at) / Fold change /veh BIN1 (11741810_x_at) / RFU WNT11 (11732464_a_at) / Fold change /veh WNT11 (11732464_a_at) / RFU C10orf10 (11716521_a_at) / Fold change /veh C10orf10 (11716521_a_at) / RFU C5orf56 (11738089_at) / Fold change /veh C5orf56 (11738089_at) / RFU CYB561 (11721691_x_at) / Fold change /veh CYB561 (11721691_x_at) / RFU ANKRD19P (11752326_a_at) / Fold change /veh ANKRD19P (11752326_a_at) / RFU OR2T12 /// OR2T33 /// OR2T8 (11738714_s_at) / Fold change /veh OR2T12 /// OR2T33 /// OR2T8 (11738714_s_at) / RFU VCAN (11748164_a_at) / Fold change /veh VCAN (11748164_a_at) / RFU JSRP1 (11732532_at) / Fold change /veh JSRP1 (11732532_at) / RFU KRTAP10-11 (11738290_x_at) / Fold change /veh KRTAP10-11 (11738290_x_at) / RFU MYO3A (11730013_a_at) / Fold change /veh MYO3A (11730013_a_at) / RFU EBF3 (11725865_a_at) / Fold change /veh EBF3 (11725865_a_at) / RFU CAMK2N1 (11719241_x_at) / Fold change /veh CAMK2N1 (11719241_x_at) / RFU C5orf56 (11738088_a_at) / Fold change /veh C5orf56 (11738088_a_at) / RFU OLFML3 (11715873_a_at) / Fold change /veh OLFML3 (11715873_a_at) / RFU LOC100653217 /// NTM (11731650_a_at) / Fold change /veh LOC100653217 /// NTM (11731650_a_at) / RFU MAPK11 (11762145_a_at) / Fold change /veh MAPK11 (11762145_a_at) / RFU FIZ1 (11724087_x_at) / Fold change /veh FIZ1 (11724087_x_at) / RFU OASL (11726364_x_at) / Fold change /veh OASL (11726364_x_at) / RFU SOX15 (11748057_x_at) / Fold change /veh SOX15 (11748057_x_at) / RFU CD79A (11719716_a_at) / Fold change /veh CD79A (11719716_a_at) / RFU HIST1H1D (11736915_at) / Fold change /veh HIST1H1D (11736915_at) / RFU CASKIN2 (11723855_a_at) / Fold change /veh CASKIN2 (11723855_a_at) / RFU LOC730098 (11760151_x_at) / Fold change /veh LOC730098 (11760151_x_at) / RFU OR4N2 (11742367_at) / Fold change /veh OR4N2 (11742367_at) / RFU PRRT2 (11749266_a_at) / Fold change /veh PRRT2 (11749266_a_at) / RFU SNX32 (11753110_a_at) / Fold change /veh SNX32 (11753110_a_at) / RFU CDHR5 (11726645_a_at) / Fold change /veh CDHR5 (11726645_a_at) / RFU RCAN1 (11760418_a_at) / Fold change /veh RCAN1 (11760418_a_at) / RFU FAM167A (11723789_a_at) / Fold change /veh FAM167A (11723789_a_at) / RFU FAM26E (11764081_at) / Fold change /veh FAM26E (11764081_at) / RFU ISYNA1 (11749810_s_at) / Fold change /veh ISYNA1 (11749810_s_at) / RFU ACY1 (11761880_at) / Fold change /veh ACY1 (11761880_at) / RFU 11764098_at / Fold change /veh 11764098_at / RFU SAMD14 (11745864_x_at) / Fold change /veh SAMD14 (11745864_x_at) / RFU NPB (11741838_a_at) / Fold change /veh NPB (11741838_a_at) / RFU TMPRSS6 (11731388_a_at) / Fold change /veh TMPRSS6 (11731388_a_at) / RFU KRTAP10-2 (11738614_at) / Fold change /veh KRTAP10-2 (11738614_at) / RFU ARHGAP8 /// PRR5-ARHGAP8 (11727945_x_at) / Fold change /veh ARHGAP8 /// PRR5-ARHGAP8 (11727945_x_at) / RFU KRTAP5-7 /// NADSYN1 (11734609_at) / Fold change /veh KRTAP5-7 /// NADSYN1 (11734609_at) / RFU RASL12 (11751679_a_at) / Fold change /veh RASL12 (11751679_a_at) / RFU CDKN2B (11736163_a_at) / Fold change /veh CDKN2B (11736163_a_at) / RFU PRF1 (11729649_at) / Fold change /veh PRF1 (11729649_at) / RFU, ZNF638 /// ZNF638-IT1 / Fold change vs veh, ZNF638 /// ZNF638-IT1 / RFU, PANK3 / Fold change vs veh, PANK3 / RFU, SH3YL1 / Fold change vs veh, SH3YL1 / RFU, ZEB2 / Fold change vs veh, ZEB2 / RFU, NRIP1 / Fold change vs veh, NRIP1 / RFU, PTTG1IP / Fold change vs veh, PTTG1IP / RFU, CAPN2 / Fold change vs veh, CAPN2 / RFU, MED14 / Fold change vs veh, MED14 / RFU, SNORA58 / Fold change vs veh, SNORA58 / RFU, C1orf63 / Fold change vs veh, C1orf63 / RFU, LRRFIP1 / Fold change vs veh, LRRFIP1 / RFU, NDUFAF7 / Fold change vs veh, NDUFAF7 / RFU, SLC12A2 / Fold change vs veh, SLC12A2 / RFU, IBTK / Fold change vs veh, IBTK / RFU, ESF1 / Fold change vs veh, ESF1 / Fold change vs veh, TMEM50B / RFU, TAOK1 / Fold change vs veh, TAOK1 / RFU, ACBD3 / Fold change vs veh, ACBD3 / RFU, TMA16 / Fold change vs veh, TMA16 / RFU, RWDD3 / Fold change vs veh, RWDD3 / RFU, BCAT1 / Fold change vs veh, BCAT1 / RFU, EDEM3 / Fold change vs veh, EDEM3 / RFU, TMEM33 / Fold change vs veh, TMEM33 / RFU, WDR75 / Fold change vs veh, WDR75 / RFU, AHCTF1 / Fold change vs veh, AHCTF1 / RFU, TFRC / Fold change vs veh, TFRC / RFU, ZDHHC17 / Fold change vs veh, ZDHHC17 / RFU, NOM1 / Fold change vs veh, NOM1 / RFU, ARL8B / Fold change vs veh, ARL8B / RFU, ZBTB11 / Fold change vs veh, ZBTB11 / RFU, TAMM41 / Fold change vs veh, TAMM41 / RFU, KIAA1704 /// LOC100996395 / Fold change vs veh, KIAA1704 /// LOC100996395 / RFU, ING1 / Fold change vs veh, ING1 / RFU, TRMT61B / Fold change vs veh, TRMT61B / RFU, FUBP3 / Fold change vs veh, FUBP3 / RFU, TP53 / Fold change vs veh, TP53 / RFU, TNKS2 / Fold change vs veh, TNKS2 / RFU, ZFP14 / Fold change vs veh, ZFP14 / RFU, ACTR2 / Fold change vs veh, ACTR2 / RFU, PPP3R1 / Fold change vs veh, PPP3R1 / RFU, PIK3R1 / Fold change vs veh, PIK3R1 / RFU, HNRNPA1 / Fold change vs veh, HNRNPA1 / RFU, RNF170 / Fold change vs veh, RNF170 / RFU, ZNF28 / Fold change vs veh, ZNF28 / RFU, RNGTT / Fold change vs veh, RNGTT / RFU, OGT / Fold change vs veh, OGT / RFU, BRD1 / Fold change vs veh, BRD1 / RFU, MARS / Fold change vs veh, MARS / RFU, ZNF655 / Fold change vs veh, ZNF655 / RFU, FAHD1 / Fold change vs veh, FAHD1 / RFU, BDP1 / Fold change vs veh, BDP1 / RFU, LRRCC1 / Fold change vs veh, LRRCC1 / RFU, ARID1A / Fold change vs veh, ARID1A / RFU, ZNF146 / Fold change vs veh, ZNF146 / RFU, ZNF330 / Fold change vs veh, ZNF330 / RFU, GPN3 / Fold change vs veh, GPN3 / RFU, C9orf123 / Fold change vs veh, C9orf123 / RFU, N4BP2L2 / Fold change vs veh, N4BP2L2 / RFU, ARFIP1 / Fold change vs veh, ARFIP1 / RFU, FAM179B / Fold change vs veh, FAM179B / RFU, BCL10 / Fold change vs veh, BCL10 / RFU, UHRF1BP1L / Fold change vs veh, UHRF1BP1L / RFU, BET1 / Fold change vs veh, BET1 / RFU, CNOT2 / Fold change vs veh, CNOT2 / RFU, ZNF268 / Fold change vs veh, ZNF268 / Fold change vs veh, ZNF507 / RFU, DGCR2 / Fold change vs veh, DGCR2 / RFU, WDSUB1 / Fold change vs veh, WDSUB1 / Fold change vs veh, HSP90B1 /// MIR3652 / RFU, ADSS / Fold change vs veh, ADSS / RFU, GK / Fold change vs veh, GK / RFU, ZNF148 / Fold change vs veh, ZNF148 / RFU, TAF9 / Fold change vs veh, TAF9 / RFU, SLC1A5 / Fold change vs veh, SLC1A5 / RFU, SLMO2 / Fold change vs veh, SLMO2 / RFU, ABCC4 / Fold change vs veh, ABCC4 / RFU, LOC101060439 /// RAP1B / Fold change vs veh, LOC101060439 /// RAP1B / RFU, RFX7 / Fold change vs veh, RFX7 / RFU, GTPBP10 / Fold change vs veh, GTPBP10 / RFU, CNEP1R1 / Fold change vs veh, CNEP1R1 / RFU, BIVM-ERCC5 /// ERCC5 / Fold change vs veh, BIVM-ERCC5 /// ERCC5 / RFU, ILF3 / Fold change vs veh, ILF3 / RFU 11762660_at / Fold change /veh 11762660_at / RFU VCAN (11757783_s_at) / Fold change /veh VCAN (11757783_s_at) / RFU DDX43 (11728927_at) / Fold change /veh DDX43 (11728927_at) / RFU KRT8 (11758188_x_at) / Fold change /veh KRT8 (11758188_x_at) / RFU NKD1 (11759106_at) / Fold change /veh NKD1 (11759106_at) / RFU SRD5A1 (11742802_a_at) / Fold change /veh SRD5A1 (11742802_a_at) / RFU TPSAB1 /// TPSB2 (11721975_s_at) / Fold change /veh TPSAB1 /// TPSB2 (11721975_s_at) / RFU GSTM3 (11746129_a_at) / Fold change /veh GSTM3 (11746129_a_at) / RFU IL23R (11737362_x_at) / Fold change /veh IL23R (11737362_x_at) / RFU TMEM51 (11727254_a_at) / Fold change /veh TMEM51 (11727254_a_at) / RFU PIWIL2 (11732686_x_at) / Fold change /veh PIWIL2 (11732686_x_at) / RFU ORM1 (11744905_x_at) / Fold change /veh ORM1 (11744905_x_at) / RFU CCDC152 (11743942_at) / Fold change /veh CCDC152 (11743942_at) / RFU ECM1 (11717891_a_at) / Fold change /veh ECM1 (11717891_a_at) / RFU IL23R (11748794_a_at) / Fold change /veh IL23R (11748794_a_at) / RFU TNFAIP8L3 (11732012_x_at) / Fold change /veh TNFAIP8L3 (11732012_x_at) / RFU MBOAT4 (11741988_at) / Fold change /veh MBOAT4 (11741988_at) / RFU 11764193_at / Fold change /veh 11764193_at / RFU TMEM53 (11763286_at) / Fold change /veh TMEM53 (11763286_at) / RFU MAGEB2 (11727129_at) / Fold change /veh MAGEB2 (11727129_at) / RFU TMEM200A (11744735_a_at) / Fold change /veh TMEM200A (11744735_a_at) / RFU CCDC152 (11751479_a_at) / Fold change /veh CCDC152 (11751479_a_at) / RFU FAM211A (11726209_a_at) / Fold change /veh FAM211A (11726209_a_at) / RFU RGS16 (11746705_a_at) / Fold change /veh RGS16 (11746705_a_at) / RFU VCAN (11755009_s_at) / Fold change /veh VCAN (11755009_s_at) / RFU RHOB (11743442_s_at) / Fold change /veh RHOB (11743442_s_at) / RFU RGS16 (11720943_a_at) / Fold change /veh RGS16 (11720943_a_at) / RFU RGS16 (11720944_at) / Fold change /veh RGS16 (11720944_at) / RFU, VPS4B / Fold change vs veh, VPS4B / RFU, CREB1 / Fold change vs veh, CREB1 / RFU, DNAJC13 / Fold change vs veh, DNAJC13 / RFU, GNAQ / Fold change vs veh, GNAQ / RFU, CDK5R1 / Fold change vs veh, CDK5R1 / RFU, ZRANB3 / Fold change vs veh, ZRANB3 / RFU, CUL4A / Fold change vs veh, CUL4A / RFU, CCNY / Fold change vs veh, CCNY / RFU, UFL1 / Fold change vs veh, UFL1 / RFU, COG3 / Fold change vs veh, COG3 / RFU, DIAPH2 / Fold change vs veh, DIAPH2 / RFU, SKA2 / Fold change vs veh, SKA2 / RFU, AFF3 / Fold change vs veh, AFF3 / RFU, LMF1 / Fold change vs veh, LMF1 / RFU, IPO11 / Fold change vs veh, IPO11 / RFU, DFFB / Fold change vs veh, DFFB / RFU, FOXP1 / Fold change vs veh, FOXP1 / RFU, CARD8 / Fold change vs veh, CARD8 / RFU, STRN3 / Fold change vs veh, STRN3 / RFU, ADK / Fold change vs veh, ADK / RFU, RASSF2 / Fold change vs veh, RASSF2 / RFU, WIPF1 / Fold change vs veh, WIPF1 / RFU, LARP1B / Fold change vs veh, LARP1B / RFU, RASA1 / Fold change vs veh, RASA1 / RFU, RB1 / Fold change vs veh, RB1 / RFU, PPFIA1 / Fold change vs veh, PPFIA1 / RFU, MAT2A / Fold change vs veh, MAT2A / RFU, CCT5 / Fold change vs veh, CCT5 / RFU, WDR92 / Fold change vs veh, WDR92 / RFU, CUX1 / Fold change vs veh, CUX1 / RFU, TTC7A / Fold change vs veh, TTC7A / RFU, TMEM135 / Fold change vs veh, TMEM135 / RFU, DEPTOR / Fold change vs veh, DEPTOR / RFU, CPM / Fold change vs veh, CPM / RFU, DNAJB6 / Fold change vs veh, DNAJB6 / RFU, CACNA2D3 / Fold change vs veh, CACNA2D3 / RFU, DTX4 / Fold change vs veh, DTX4 / RFU, TFCP2 / Fold change vs veh, TFCP2 / RFU, GMCL1 /// GMCL1P1 / Fold change vs veh, GMCL1 /// GMCL1P1 / RFU, AEBP2 / Fold change vs veh, AEBP2 / RFU, SNHG1 /// SNORD22 /// SNORD25 /// SNORD26 /// SNORD27 /// SNORD28 /// SNORD29 /// SNORD31 / Fold change vs veh, SNHG1 /// SNORD22 /// SNORD25 /// SNORD26 /// SNORD27 /// SNORD28 /// SNORD29 /// SNORD31 / Fold change (Aza/veh), C12orf56 (ProbeSet 11735607_a_at) / Fold change (ACY-1035/veh), C12orf56 (ProbeSet 11735607_a_at) / Fold change (Aza/veh), FGFR1OP (ProbeSet 11751329_s_at) / Fold change (ACY-1035/veh), FGFR1OP (ProbeSet 11751329_s_at) / Fold change (Aza/veh), VPS36 (ProbeSet 11739960_a_at) / Fold change (ACY-1035/veh), VPS36 (ProbeSet 11739960_a_at) / RFU SYPL1 (11715823_x_at) / Fold change /veh SYPL1 (11715823_x_at) / RFU IGFBP7 (11715501_s_at) / Fold change /veh IGFBP7 (11715501_s_at) / RFU REEP3 (11722064_at) / Fold change /veh REEP3 (11722064_at) / RFU IGLL1 (11728026_x_at) / Fold change /veh IGLL1 (11728026_x_at): dose or concentration left out as unconfirmed
Settings: ProbeSet 11754362_a_at; LIST D

## Nc1ccc(-c2cccs2)cc1NC(=O)c1ccc2c(c1)cc(C1CC1)n2CCN1CCOCC1 [ACY-1035]
  Fold change vs veh, TTC7A: 0.87
